Where “and” joins values, the source holds several entries; their conditions need not be identical. Identical values can stand only once. Calls of active or inactive are those of the source. The calls are words filed in the database; no cut-off is given here.
Tests used:
[1] = biological target: Protein-tyrosine kinase 6 (Homo sapiens) (UniProt Q13882); test: Inhibition of human BRK assessed as percent of control at 2000 nM by KINOMEscan assay relative to control; design: scale not given: the % may be the effect or the level left
[2] = biological target: Calcium/calmodulin-dependent protein kinase type II subunit beta (Homo sapiens) (UniProt Q13554); test: Inhibition of human CAMK2B assessed as percent of control at 2000 nM by KINOMEscan assay relative to control; design: scale not given: the % may be the effect or the level left
[3] = biological target: Serine/threonine-protein kinase Chk1 (Homo sapiens) (UniProt O14757); test: Inhibition of human CHEK1 assessed as percent of control at 2000 nM by KINOMEscan assay relative to control; design: scale not given: the % may be the effect or the level left
[4] = biological target: Dual specificity protein kinase CLK2 (Homo sapiens) (UniProt P49760); test: Inhibition of human CLK2 assessed as percent of control at 2000 nM by KINOMEscan assay relative to control; design: scale not given: the % may be the effect or the level left
Sequence of Dual specificity protein kinase CLK2 (Homo sapiens) (P49760 whole entry, looked up): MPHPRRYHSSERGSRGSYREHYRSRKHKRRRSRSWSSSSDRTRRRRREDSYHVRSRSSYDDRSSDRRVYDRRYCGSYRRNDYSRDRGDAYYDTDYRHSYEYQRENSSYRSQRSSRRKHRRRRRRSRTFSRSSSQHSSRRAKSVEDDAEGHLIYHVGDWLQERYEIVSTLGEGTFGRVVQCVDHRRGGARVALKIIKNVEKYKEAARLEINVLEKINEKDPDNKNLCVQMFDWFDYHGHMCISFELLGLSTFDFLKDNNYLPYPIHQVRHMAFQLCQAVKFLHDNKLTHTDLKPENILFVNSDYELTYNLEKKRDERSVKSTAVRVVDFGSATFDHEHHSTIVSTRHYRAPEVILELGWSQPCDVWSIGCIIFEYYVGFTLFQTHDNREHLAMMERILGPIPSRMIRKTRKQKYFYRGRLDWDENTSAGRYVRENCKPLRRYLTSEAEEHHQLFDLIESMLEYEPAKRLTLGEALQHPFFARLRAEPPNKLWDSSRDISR

[5] = biological target: Serine/threonine-protein kinase DCLK3 (Homo sapiens) (UniProt Q9C098); test: Inhibition of human DCAMKL3 assessed as percent of control at 2000 nM by KINOMEscan assay relative to control; design: scale not given: the % may be the effect or the level left
[6] = biological target: Epithelial discoidin domain-containing receptor 1 (Homo sapiens) (UniProt Q08345); test: Inhibition of human DDR1 assessed as percent of control at 2000 nM by KINOMEscan assay relative to control; design: scale not given: the % may be the effect or the level left
Sequence of Epithelial discoidin domain-containing receptor 1 (Homo sapiens) (Q08345 whole entry, the tested form may be a part): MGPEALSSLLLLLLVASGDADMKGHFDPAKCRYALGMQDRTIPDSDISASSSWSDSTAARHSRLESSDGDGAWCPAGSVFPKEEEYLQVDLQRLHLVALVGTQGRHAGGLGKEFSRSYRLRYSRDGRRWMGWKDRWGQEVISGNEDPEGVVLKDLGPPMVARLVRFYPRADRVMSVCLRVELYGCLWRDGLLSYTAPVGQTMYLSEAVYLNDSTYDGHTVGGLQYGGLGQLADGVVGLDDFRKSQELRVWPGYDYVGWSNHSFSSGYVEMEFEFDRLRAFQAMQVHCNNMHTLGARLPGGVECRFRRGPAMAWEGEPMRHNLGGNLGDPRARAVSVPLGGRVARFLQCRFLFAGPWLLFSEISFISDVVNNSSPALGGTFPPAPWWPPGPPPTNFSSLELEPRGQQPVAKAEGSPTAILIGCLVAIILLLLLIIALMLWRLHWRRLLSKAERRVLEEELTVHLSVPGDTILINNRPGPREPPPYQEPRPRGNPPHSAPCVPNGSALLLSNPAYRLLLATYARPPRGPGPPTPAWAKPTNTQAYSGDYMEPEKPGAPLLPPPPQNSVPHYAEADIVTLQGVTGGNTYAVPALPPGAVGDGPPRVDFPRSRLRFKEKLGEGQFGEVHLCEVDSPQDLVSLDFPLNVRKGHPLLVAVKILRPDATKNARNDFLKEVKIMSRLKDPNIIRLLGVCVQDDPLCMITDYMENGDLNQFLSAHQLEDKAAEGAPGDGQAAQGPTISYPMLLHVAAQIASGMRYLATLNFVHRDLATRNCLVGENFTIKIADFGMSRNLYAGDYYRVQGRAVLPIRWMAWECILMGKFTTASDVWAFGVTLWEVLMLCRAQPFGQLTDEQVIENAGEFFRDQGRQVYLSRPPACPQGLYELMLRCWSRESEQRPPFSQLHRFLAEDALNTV

[7] = biological target: Ephrin type-A receptor 2 (Homo sapiens) (UniProt P29317); test: Inhibition of human EPHA2 assessed as percent of control at 2000 nM by KINOMEscan assay relative to control; design: scale not given: the % may be the effect or the level left
[8] = biological target: Ephrin type-B receptor 3 (Homo sapiens) (UniProt P54753); test: Inhibition of human EPHB3 assessed as percent of control at 2000 nM by KINOMEscan assay relative to control; design: scale not given: the % may be the effect or the level left
[9] = biological target: Vascular endothelial growth factor receptor 1 (Homo sapiens) (UniProt P17948); test: Inhibition of human FLT1 assessed as percent of control at 2000 nM by KINOMEscan assay relative to control; design: scale not given: the % may be the effect or the level left
[10] = biological target: Vascular endothelial growth factor receptor 3 (Homo sapiens) (UniProt P35916); test: Inhibition of human FLT4 assessed as percent of control at 2000 nM by KINOMEscan assay relative to control; design: scale not given: the % may be the effect or the level left
Sequence of Vascular endothelial growth factor receptor 3 (Homo sapiens) (P35916 whole entry): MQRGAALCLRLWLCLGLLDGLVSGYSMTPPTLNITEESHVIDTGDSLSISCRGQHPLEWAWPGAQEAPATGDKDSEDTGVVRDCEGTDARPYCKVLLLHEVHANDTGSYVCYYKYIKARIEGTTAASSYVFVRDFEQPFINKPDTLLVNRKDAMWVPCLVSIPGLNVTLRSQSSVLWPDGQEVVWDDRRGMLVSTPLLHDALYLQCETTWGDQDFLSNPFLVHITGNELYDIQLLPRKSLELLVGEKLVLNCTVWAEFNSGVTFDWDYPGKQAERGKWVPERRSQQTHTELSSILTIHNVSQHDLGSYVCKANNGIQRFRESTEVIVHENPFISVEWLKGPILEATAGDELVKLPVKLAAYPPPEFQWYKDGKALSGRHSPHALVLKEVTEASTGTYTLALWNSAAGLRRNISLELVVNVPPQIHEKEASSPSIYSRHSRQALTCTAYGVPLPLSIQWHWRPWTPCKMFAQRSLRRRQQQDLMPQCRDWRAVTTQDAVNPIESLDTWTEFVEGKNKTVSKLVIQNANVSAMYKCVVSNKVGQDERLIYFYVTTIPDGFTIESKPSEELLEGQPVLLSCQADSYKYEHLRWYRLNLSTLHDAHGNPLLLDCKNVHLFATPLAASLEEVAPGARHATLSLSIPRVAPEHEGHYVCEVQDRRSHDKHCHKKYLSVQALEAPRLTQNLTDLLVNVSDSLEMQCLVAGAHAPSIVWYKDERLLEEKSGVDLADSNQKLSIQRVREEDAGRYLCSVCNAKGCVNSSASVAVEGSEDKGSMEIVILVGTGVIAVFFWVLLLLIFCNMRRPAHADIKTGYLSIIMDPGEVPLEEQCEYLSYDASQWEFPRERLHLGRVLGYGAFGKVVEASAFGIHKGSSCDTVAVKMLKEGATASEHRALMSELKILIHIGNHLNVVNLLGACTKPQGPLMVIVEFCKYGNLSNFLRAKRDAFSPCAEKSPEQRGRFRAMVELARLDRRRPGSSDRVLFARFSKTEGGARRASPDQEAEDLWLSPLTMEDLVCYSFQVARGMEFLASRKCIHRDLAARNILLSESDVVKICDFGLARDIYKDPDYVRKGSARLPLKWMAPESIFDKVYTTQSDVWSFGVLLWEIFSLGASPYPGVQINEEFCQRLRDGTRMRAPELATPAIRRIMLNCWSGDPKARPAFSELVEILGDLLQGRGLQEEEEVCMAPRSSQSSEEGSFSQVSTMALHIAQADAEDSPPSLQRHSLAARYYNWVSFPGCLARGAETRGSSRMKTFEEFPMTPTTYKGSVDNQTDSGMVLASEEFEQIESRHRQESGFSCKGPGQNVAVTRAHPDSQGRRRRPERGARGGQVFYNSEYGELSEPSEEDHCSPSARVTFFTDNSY

[11] = biological target: Tyrosine-protein kinase FRK (Homo sapiens) (UniProt P42685); test: Inhibition of human FRK assessed as percent of control at 2000 nM by KINOMEscan assay relative to control; design: scale not given: the % may be the effect or the level left
[12] = biological target: Homeodomain-interacting protein kinase 1 (Homo sapiens) (UniProt Q86Z02); test: Inhibition of human HIPK1 assessed as percent of control at 2000 nM by KINOMEscan assay relative to control; design: scale not given: the % may be the effect or the level left
[13] = biological target: Insulin receptor-related protein (Homo sapiens) (UniProt P14616); test: Inhibition of human INSRR assessed as percent of control at 2000 nM by KINOMEscan assay relative to control; design: scale not given: the % may be the effect or the level left
[14] = tested on: Mast/stem cell growth factor receptor Kit (Homo sapiens), P10721 [D816V]; test: Inhibition of human KIT D816V mutant assessed as percent of control at 2000 nM by KINOMEscan assay relative to control; design: scale not given: the % may be the effect or the level left
[15] = tested on: Mast/stem cell growth factor receptor Kit (Homo sapiens), P10721 [V559D]; test: Inhibition of human KIT V559D mutant assessed as percent of control at 2000 nM by KINOMEscan assay relative to control; design: scale not given: the % may be the effect or the level left
[16] = biological target: Tyrosine-protein kinase Lck (Homo sapiens) (UniProt P06239); test: Inhibition of human LCK assessed as percent of control at 2000 nM by KINOMEscan assay relative to control; design: scale not given: the % may be the effect or the level left
[17] = biological target: Mitogen-activated protein kinase kinase kinase 11 (Homo sapiens) (UniProt Q16584); test: Inhibition of human MLK3 assessed as percent of control at 2000 nM by KINOMEscan assay relative to control; design: scale not given: the % may be the effect or the level left
Sequence of Mitogen-activated protein kinase kinase kinase 11 (Homo sapiens) (Q16584 whole entry, looked up): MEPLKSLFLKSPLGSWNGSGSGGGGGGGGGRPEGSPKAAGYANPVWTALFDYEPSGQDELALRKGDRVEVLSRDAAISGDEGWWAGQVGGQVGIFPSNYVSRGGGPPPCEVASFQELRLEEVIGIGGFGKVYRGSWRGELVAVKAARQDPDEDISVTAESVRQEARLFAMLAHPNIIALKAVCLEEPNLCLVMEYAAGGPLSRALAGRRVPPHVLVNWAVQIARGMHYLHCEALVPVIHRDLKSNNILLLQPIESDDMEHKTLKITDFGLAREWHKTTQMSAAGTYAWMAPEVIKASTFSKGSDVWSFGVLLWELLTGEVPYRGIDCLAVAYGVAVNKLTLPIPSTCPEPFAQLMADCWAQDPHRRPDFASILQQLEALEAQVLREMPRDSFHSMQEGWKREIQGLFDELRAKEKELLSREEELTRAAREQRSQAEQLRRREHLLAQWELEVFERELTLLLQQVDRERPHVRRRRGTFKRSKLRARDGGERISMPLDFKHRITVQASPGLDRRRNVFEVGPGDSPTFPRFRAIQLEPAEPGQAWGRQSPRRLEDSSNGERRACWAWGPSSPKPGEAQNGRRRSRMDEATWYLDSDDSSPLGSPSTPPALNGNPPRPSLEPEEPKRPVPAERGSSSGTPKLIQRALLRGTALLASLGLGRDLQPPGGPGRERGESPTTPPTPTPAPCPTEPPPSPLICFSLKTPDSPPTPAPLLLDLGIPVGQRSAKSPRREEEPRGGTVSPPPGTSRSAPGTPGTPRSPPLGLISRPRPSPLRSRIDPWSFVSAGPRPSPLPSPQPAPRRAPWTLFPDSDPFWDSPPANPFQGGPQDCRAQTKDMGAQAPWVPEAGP

[18] = biological target: Serine/threonine-protein kinase Nek3 (Homo sapiens) (UniProt P51956); test: Inhibition of human NEK3 assessed as percent of control at 2000 nM by KINOMEscan assay relative to control; design: scale not given: the % may be the effect or the level left
[19] = biological target: Mitogen-activated protein kinase 13 (Homo sapiens) (UniProt O15264); test: Inhibition of human p38-delta assessed as percent of control at 2000 nM by KINOMEscan assay relative to control; design: scale not given: the % may be the effect or the level left
Sequence of Mitogen-activated protein kinase 13 (Homo sapiens) (O15264 whole entry, canonical isoform): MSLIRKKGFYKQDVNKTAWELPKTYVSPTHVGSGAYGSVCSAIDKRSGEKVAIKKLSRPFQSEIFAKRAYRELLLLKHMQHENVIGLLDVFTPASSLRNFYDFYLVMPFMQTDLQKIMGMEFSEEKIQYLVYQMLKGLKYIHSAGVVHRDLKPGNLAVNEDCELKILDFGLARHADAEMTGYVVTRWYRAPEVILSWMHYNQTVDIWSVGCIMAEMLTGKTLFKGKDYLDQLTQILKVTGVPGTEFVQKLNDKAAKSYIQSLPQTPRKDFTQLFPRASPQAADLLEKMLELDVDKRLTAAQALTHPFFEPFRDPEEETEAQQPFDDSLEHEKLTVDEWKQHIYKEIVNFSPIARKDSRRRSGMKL

[20] = biological target: Phosphatidylinositol 4,5-bisphosphate 3-kinase catalytic subunit alpha isoform (Homo sapiens) (UniProt P42336); test: Inhibition of human PIK3CA assessed as percent of control at 2000 nM by KINOMEscan assay relative to control; design: scale not given: the % may be the effect or the level left
[21] = tested on: Phosphatidylinositol 4,5-bisphosphate 3-kinase catalytic subunit alpha isoform (Homo sapiens), P42336 [Q546K]; test: Inhibition of human PIK3CA Q546K mutant assessed as percent of control at 2000 nM by KINOMEscan assay relative to control; design: scale not given: the % may be the effect or the level left
Sequence of Phosphatidylinositol 4,5-bisphosphate 3-kinase catalytic subunit alpha isoform (Homo sapiens), P42336 [Q546K] (P42336 whole entry Q546K, canonical isoform): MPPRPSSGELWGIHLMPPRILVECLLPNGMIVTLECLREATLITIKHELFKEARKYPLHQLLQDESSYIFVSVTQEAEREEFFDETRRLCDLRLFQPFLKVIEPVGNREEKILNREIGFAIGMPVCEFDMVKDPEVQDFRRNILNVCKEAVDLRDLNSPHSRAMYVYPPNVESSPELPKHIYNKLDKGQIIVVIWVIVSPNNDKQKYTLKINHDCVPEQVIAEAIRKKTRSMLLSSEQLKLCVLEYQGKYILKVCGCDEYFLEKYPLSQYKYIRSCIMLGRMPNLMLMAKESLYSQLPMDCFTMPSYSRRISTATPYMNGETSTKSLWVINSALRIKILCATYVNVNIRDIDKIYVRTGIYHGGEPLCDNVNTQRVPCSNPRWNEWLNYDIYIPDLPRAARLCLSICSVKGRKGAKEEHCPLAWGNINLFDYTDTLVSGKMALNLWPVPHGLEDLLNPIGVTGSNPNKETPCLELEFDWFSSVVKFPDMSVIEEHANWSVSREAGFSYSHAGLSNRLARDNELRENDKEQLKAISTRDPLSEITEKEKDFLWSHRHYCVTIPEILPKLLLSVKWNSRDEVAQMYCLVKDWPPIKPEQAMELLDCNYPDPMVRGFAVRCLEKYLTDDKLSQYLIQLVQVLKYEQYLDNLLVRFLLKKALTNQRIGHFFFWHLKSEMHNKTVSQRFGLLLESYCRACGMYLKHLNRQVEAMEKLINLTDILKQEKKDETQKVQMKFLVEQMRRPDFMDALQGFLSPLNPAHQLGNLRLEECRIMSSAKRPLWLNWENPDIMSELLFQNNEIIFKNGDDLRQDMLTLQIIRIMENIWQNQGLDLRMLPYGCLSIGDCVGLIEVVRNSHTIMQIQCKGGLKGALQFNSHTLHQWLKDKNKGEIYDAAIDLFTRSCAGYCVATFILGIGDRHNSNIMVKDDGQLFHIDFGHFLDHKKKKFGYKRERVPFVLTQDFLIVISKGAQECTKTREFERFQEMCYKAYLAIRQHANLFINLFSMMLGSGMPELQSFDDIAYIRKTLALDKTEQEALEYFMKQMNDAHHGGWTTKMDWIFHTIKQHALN

[22] = biological target: Serine/threonine-protein kinase TNNI3K (Homo sapiens) (UniProt Q59H18); test: Inhibition of human TNNI3K assessed as percent of control at 2000 nM by KINOMEscan assay relative to control; design: scale not given: the % may be the effect or the level left
[23] = biological target: Transient receptor potential cation channel subfamily M member 6 (Homo sapiens) (UniProt Q9BX84); test: Inhibition of human TRPM6 assessed as percent of control at 2000 nM by KINOMEscan assay relative to control; design: scale not given: the % may be the effect or the level left
[24] = biological target: Phosphatidylinositol 3-kinase catalytic subunit type 3 (Homo sapiens) (UniProt Q8NEB9); test: Inhibition of human VPS34 assessed as percent of control at 2000 nM by KINOMEscan assay relative to control; design: scale not given: the % may be the effect or the level left
[25] = tested on: Myc-CaP; test: Antitumor activity against murine castration-resistant Myc-CaP cells xenografted in male FVB mouse assessed as suppression of tumor weight; format: functional

CN(C)C(=O)c1ccc(N2CCCN(c3ccnc4sc(C(N)=O)c(N)c34)CC2)cc1
Activity [1]: 100% and 99%
Activity [2]: 92% and 87%
Activity [3]: 94% and 100%
Activity [4]: 75% and 83%
Activity [5]: 91% and 100%
Activity [6]: 82% and 90%
Activity [7]: 95% and 100%
Activity [8]: 96% and 94%
Activity [9]: 100%
Activity [10]: 92% and 98%
Activity [11]: 100% and 97%
Activity [12]: 86% and 71%
Activity [13]: 99% and 89%
Activity [14]: 93% and 79%
Activity [15]: 98% and 91%
Activity [16]: 91% and 100%
Activity [17]: 99% and 100%
Activity [18]: 100% and 76%
Activity [19]: 96% and 97%
Activity [20]: 100% and 79%
Activity [21]: 66% and 72%
Activity [22]: 100%
Activity [23]: 100% and 80%
Activity [24]: 85% and 65%
Activity [25]: Active
